Data published in patent publication US11395867B2, “Degradable removable implant for the sustained release of an active compound” (Janssen Sciences Ireland Unlimited Company, priority 2009, dated 2022).
“And” between values parts separate entries of the source, which are not always exact repeats. Equal values may be shown once.

What was measured:
[1] = In vivo testing of laser drilled melt extruded tube containing two sets of microparticles formulated with F108, plasma concentrations; parameters: species or system Sprague-Dawley rats; details: rat, subcutaneous laser drilled extruded tube implant, TMC278 109 mg/kg, compound 1 78 mg/kg, individual animals 1-4
Description: The laser drilled melt extruded tube was prepared as described above in example 10. The microparticles were prepared by the spinning disc method using a 3% (w/w) polymer/acetone solution. Two sets of microparticles were prepared. The target composition of one set was 70% (w/w) TMC278, 20% (w/w) PLGA 50/50 (Lakeshore Biomaterials IVHFIP=0.79 dl/g), and 10% (w/w) F108 (BASF). The target composition of the other set of microparticles was 70% (w/w) compound 1, 20% (w/w) PLGA 50/50 (Lakeshore Biomaterials IVHFIP=0.18 dl/g), and 10% (w/w) F108. The F108 was added to the polymer solution.
The size range of the microparticles was determined by randomly selecting a sample of microparticles and placing them on the stage of an optical microscope and using a ruler to measure the various sizes of the microparticles in the randomly selected sample. The size range of the TMC278 and compound 1 microparticles was 10-100 microns and 20-100 microns, respectively. Microparticles were mixed as described in example 9. Approximately 133 mg of the microparticle mixture was introduced into tubes using a spatula to transfer the contents.
The prepared tubes were implanted into the subcutaneous space on the back of four male Sprague-Dawley rats weighing between 250-350 grams. The dose of TMC278 and compound 1 was 109 mg/kg and 78 mg/kg, respectively. The tail vein was sampled at pre-determined time points. Blood samples were immediately centrifuged to extract the plasma, plasma was analyzed for compound 1 and TMC278 by LC/MS/MS. The lower limit of quantitation for TMC278 and compound 1 was 0.4 ng/ml and 2 ng/ml, respectively.

[2] = Solubility experiments of TMC278 in water; assay type: physicochemical
Source text: The solubility of TMC278 dramatically increases at pH=2. […] The use of an acidic binder gel that can effectively lower pH, can increase the rate of elution of TMC278 from the polymer matrix. Increasing the concentration of the acidic polymer in the gel can depress the pH even further (Table 1).

[3] = In vivo testing of laser drilled melt extruded tube containing two sets of microparticles, plasma concentrations; details: rat, subcutaneous laser drilled extruded tube implant, TMC278 139 mg/kg, compound 1 64 mg/kg, individual animals 1-4
Description: Tubes with inner diameter of 4.5 mm were extruded from polydioxanone (IVHFIP=1.99 dl/g) using a ¾ inch single screw extruder fitted with a tube die. The dimensions of the tube were monitored using an in-line laser diameter measuring system and maintained using a puller. Following the extrusion the tubes were laser drilled. In preparation for the laser drilling a mask design was prepared that located the holes 260 microns apart from one another. Scanning electron microscopy was used to size the inner and outer diameter of the holes. […] The microparticles were prepared as described in Example 9. Approximately 133 mg of the microparticle mixture was introduced into the tubes.
(§1) The prepared tubes were implanted into the subcutaneous space on the back of four male Sprague-Dawley rats weighing between 250-350 grams. The dose of TMC278 was 139 mg/kg and the dose of compound 1 was 64 mg/kg. The tail vein was sampled at pre-determined time points. Blood samples were immediately centrifuged to extract the plasma, and plasma was analyzed for compound 1 and TMC278 by LC/MS/MS. The lower limit of quantitation for TMC278 and compound 1 was 0.4 ng/ml and 2.0 ng/ml, respectively.

[4] = In vivo testing of electrostatically spun tube containing two sets of microparticles, plasma concentrations; parameters: species or system Sprague-Dawley rats; details: rat, subcutaneous electrospun tube implant, TMC278 139 mg/kg, compound 1 64 mg/kg, individual animals 1-4
Description: Tubes were electrostatically spun from a 100 mg/ml polydioxanone (IVHFIP=1.99 dl/g) hexafluoroisopropanol solution. A 4 mm mandrel was used to provide a consistent inner diameter of 4 mm. The rotational speed of the mandrel was 400 rpm, the charging voltage range was 20/−10 kV, and the pump flow rate was 10 ml/hour. The resulting wall thickness was 500 microns. Fiber diameters were 1-2 microns and the average pore size formed from the network of fibers was 20 microns as determined by Scanning Electron Microscopy.
The microparticles were prepared by the spinning disc method using a polymer/acetone solution with a concentration ranging from 3-4% (w/w). Two sets of microparticles were prepared. The target composition of one set was 70% (w/w) TMC278 and 30% (w/w) PLGA 50/50 (Lakeshore Biomaterials IVHFIP=0.79 dl/g). The target composition of the other set of microparticles was 70% (w/w) of compound 1 (=compound 14 of WO01/25240) and 30% (w/w) PLGA 50/50 (Lakeshore Biomaterials IVHFIP=0.18 dl/g). This compound 1 has the following structure and will be referred to hereinafter as compound 1:
Approximately 133 mg of the microparticle mixture was introduced into the electrostatically prepared tubes using a spatula.
as §1, with “plasma,” for “plasma, and”, “quantitation was 0.4 ng/ml and 2 ng/ml” for “quantitation”, “1,” for “1 was 0.4 ng/ml and 2.0 ng/ml,”

[5] = male, Sprague-Dawley, plasma, subcutaneous, 7 day
[6] = male, Sprague-Dawley, plasma, subcutaneous, 14 day

Cc1cc(/C=C/C#N)cc(C)c1Nc1ccnc(Nc2ccc(C#N)cc2)n1 [TMC278, rilpivirine]
plasma concentration ([1]; 3 hour): 2.12 ng/mL and 1.40 ng/mL and 2.42 ng/mL and 1.02 ng/mL
plasma concentration ([1]; 1 day): 0.797 ng/mL and 0.522 ng/mL and 0.939 ng/mL and <0.4 ng/mL
plasma concentration ([1]; 3 day): <0.4 ng/ml (2×) and 0.521 ng/ml
plasma concentration ([1]; 7 day): <0.4 ng/ml (2×) and 0.405 ng/ml
plasma concentration ([1]; 14 day): <0.4 ng/mL and 0.478 ng/mL and 0.664 ng/mL
plasma concentration ([1]; 28 day): 2.13 ng/mL and 0.539 ng/mL and 1.13 ng/mL and 2.19 ng/mL
plasma concentration ([1]; 35 day): 2.17 ng/mL and 0.744 ng/mL and 1.48 ng/mL and 2.48 ng/mL
concentration at 3 day ([1]; male, Sprague-Dawley, plasma, 3 day): 0.485 ng/mL
concentration at 7 day ([1]; male, Sprague-Dawley, plasma, 7 day): < 0.4 ng/mL
concentration at 14 day ([1]; male, Sprague-Dawley, plasma, 14 day): 0.6 ng/mL
solubility in water at pH of 2 relative to pH of 7 ([2]; pH 2 vs pH 7): 950 times
solubility in water ([2]; water): extreme insolubility
plasma concentration ([3]; 3 hour): 0.551 ng/mL and 1.42 ng/mL and 2.51 ng/mL and 1.61 ng/mL
plasma concentration ([3]; 1 day): <0.4 ng/ml (2×) and 0.432 ng/ml and 1.22 ng/ml
plasma concentration ([3]; 3 day): <0.4 ng/ml (3×) and 1.14 ng/ml
plasma concentration ([3]; 7 day): 0.4 ng/mL and 0.695 ng/mL and <0.4 ng/mL
plasma concentration ([3]; 14 day): <0.4 ng/mL and 0.425 ng/mL and 0.456 ng/mL
plasma concentration ([3]; 28 day): <0.4 ng/mL and 0.451 ng/mL and 1.36 ng/mL and 0.773 ng/mL
plasma concentration ([3]; 35 day): <0.4 ng/mL and 0.403 ng/mL and 2.11 ng/mL and 0.881 ng/mL
concentration at 7 day [3, 5]: < 0.4 ng/mL
concentration at 14 day [3, 6]: < 0.4 ng/mL
plasma concentration ([4]; 3 hour): 0.562 ng/mL and 0.462 ng/mL and 0.576 ng/mL
plasma concentration ([4]; 1 day): 0.441 ng/mL and <0.4 ng/mL and 0.575 ng/mL
plasma concentration ([4]; 3 day): 0.518 ng/mL and <0.4 ng/mL and 0.549 ng/mL
plasma concentration ([4]; 7 day): 0.645 ng/ml and <0.4 ng/ml (2×)
plasma concentration ([4]; 14 day): <0.4 ng/ml (2×) and 0.424 ng/ml
plasma concentration ([4]; 28 day): <0.4 ng/ml (2×) and 0.475 ng/ml
plasma concentration ([4]; 35 day): 0.527 ng/mL and 0.769 ng/mL and 0.400 ng/mL
concentration at 3 h ([4]; male, Sprague-Dawley, plasma, subcutaneous, 3 hour): 0.505 ng/mL
concentration at 1 day ([4]; male, Sprague-Dawley, plasma, subcutaneous, 1 day): < 0.4 ng/mL
concentration at 3 day ([4]; male, Sprague-Dawley, plasma, subcutaneous, 3 day): < 0.4 ng/mL
concentration at 7 day [4, 5]: 0.421 ng/mL
concentration at 14 day [4, 6]: < 0.4 ng/mL
concentration at 28 day ([4]; male, Sprague-Dawley, plasma, subcutaneous, 28 day): < 0.4 ng/mL
concentration at 35 day ([4]; male, Sprague-Dawley, plasma, subcutaneous, 35 day): < 0.4 ng/mL
